Reference: patent US20050260126A1 (priority 2002, published 2005)
Counter-ions that a name gives are not always drawn.

Key:
[1] = Slc:ICR, mouse, not told, iv
[2] = system: ScN2a cells; conditions: for Concentration of inhibiting cell proliferation TC: mouse
[3] = system: abnormal prion proteins in ScN2a cells with persistent infection of scrapie; test: cells; format: cell-based, mouse; conditions: for IC50: Mus musculus, ScN2a, 96 h, read-out: Inhibitory effects on producing abnormal prion protein IC50; for Inhibitory effects on producing abnormal prion proteins (in words): ScN2a cells
[4] = in vivo; conditions: male, Crj:CD1, mouse, iv

| Compound | Permeability into the brain: content in Brain [1] | Permeability into the brain: content in Plasma [1] | TC and safety concentration margin (in words) [2] | Concentration of inhibiting cell proliferation TC [2] [µM] | IC50 [3] [nM] | Inhibitory effects on producing abnormal prion proteins (in words) [3] | MTD [4] [mg/kg] |
| --- | --- | --- | --- | --- | --- | --- | --- |
| CN(C)c1ccc(-c2cn3cc(I)ccc3n2)cc1 [BF-130, 2-(4-dimethylamino) phenyl-6-iodoimidazo-[1,2-a]pyridine] | 7.3 % ID/g or ml | 2.4 % ID/g or ml | higher TCs, therefore higher safety concentration margins | 100 | 1 | highly inhibitory effects | – |
| CN(C)c1ccc(/C=C/c2cccs2)cc1 [BF-141, 2-[2-(4-dimethylamino-phenyl)ethenyl]thiophene] | – | – | – | 10 | 1 | highly inhibitory effects | 3 to 10 |
| CN(C)c1ccc(-c2nc3ccccc3s2)cc1 [BF-150, 2-(4-dimethylamino-phenyl) benzothiazole] | 11.2 % ID/g or ml | 1.5 % ID/g or ml | – | 10 | 1 | highly inhibitory effects | – |
| CN(C)c1ccc2cc(-c3nc4cc(F)ccc4[nH]3)ccc2c1 [BF-153, 5-fluoro-2-(6-dimethyl-aminonaphthalen-2-yl)benzimidazole] | – | – | – | 10 | 1 | highly inhibitory effects | 3 to 10 |
| CNc1ccc(-c2ccc3ccccc3n2)cc1 [BF-158, 2-[(4-methylamino)-phenyl]quinoline] | 9.7 % ID/g or ml | 1.8 % ID/g or ml | – | 100 | 10 | – | – |
| Nc1ccc(-c2ccc3ccccc3n2)cc1 [BF-170, 2-[(4-amino)phenyl]-quinoline] | 9.1 % ID/g or ml | 1.4 % ID/g or ml | – | 100 | 100 | – | – |
| Nc1ccc(/C=C/c2nc3cc(I)ccc3o2)cc1 [BF-173, 2-(4-amino)styryl-5-iodobenzoxazole] | – | – | – | 100 | 100 | – | ≥ 10 |
| Nc1ccc(/C=C/c2ccc3ccccc3n2)cc1 [BF-177, 2-[2-(4-aminophenyl)ethenyl]quinoline] | 8.2 % ID/g or ml | 1.6 % ID/g or ml | – | – | – | – | ≥ 10 |
| CC1=NN(c2ccc(/C=C/c3nc4ccccc4o3)cc2)C(=O)C1 [BF-181, 2-[2-[4-(3-methyl-5-oxo-2-pyrrozolin-1-yl)-phenyl]ethenyl]benzoxazole] | – | – | – | – | – | – | 3 to 10 |
| CNc1ccc(/C=C/C=C/c2nc3ccccc3o2)cc1 [BF-185, 2-[[4-(4-methylamino)-phenyl]-1,3-butadienyl]-benzoxazole] | 3.9 % ID/g or ml | 1.0 % ID/g or ml | – | – | – | – | ≥ 10 |
| CNc1ccc(/C=C/C=C/c2nc3ccccc3[nH]2)cc1 [BF-188, 2-[[4-(4-methylamino)-phenyl]-1,3-butadienyl]-benzimidazole] | 4.8 % ID/g or ml | 1.7 % ID/g or ml | – | – | – | – | ≥ 10 |
| CNc1ccc(/C=C/C=C/C=C/c2ccc3ccccc3n2)cc1 [BF-189, 1-(4-methylamino-phenyl)-6-(2-quinolyl)-1,3,5-hexatriene] | – | – | – | 100 | 100 | – | ≥ 10 |
| Clc1ccc(/C=C/c2nc3ccccc3o2)cc1 [BF-191, 2-[2-(4-chlorophenyl)ethenyl]benzoxazole] | 12.0 % ID/g or ml | 2.1 % ID/g or ml | – | >10 | 4 | – | – |
| CN(C)c1ncc(/C=C/c2nc3ccccc3s2)s1 [BF-196, 2-[2-(2-dimethylamino-thiazol-5-yl)ethenyl]-benzothiazole] | 19 % ID/g or ml | 1.8 % ID/g or ml | – | >10 | 16 | – | – |
| CNc1ccc(C=Cc2ccc3cc(I)ccc3n2)c(O)c1 [BF-199, 2-[2-(2-hydroxyl-4-methylaminophenyl)-ethenyl]-6-iodoquinoline] | – | – | – | >10 | 0.8 | – | ≥ 10 |
| Cc1nc(/C=C/c2ccc(N(C)C)cc2O)oc1CO [BF-200, 2-[2-[(4-dimethylamino-2-hydroxy)phenyl]-ethenyl]-5-hydroxy methyl-4-methyloxazole] | – | – | – | – | – | – | ≥ 10 |
| CN(C)c1ccc(/C=C/c2nc3ccccc3o2)c(O)c1 [BF-206, 2-(4-dimethylamino-2-hydroxystyryl)-benzoxazole] | – | – | – | >10 | 2 | – | ≥ 10 |

| Compound | Permeability into the brain: content in Brain [1] | Permeability into the brain: content in Plasma [1] | TC and safety concentration margin (in words) [2] | Concentration of inhibiting cell proliferation TC [2] [µM] | IC50 [3] [nM] | Inhibitory effects on producing abnormal prion proteins (in words) [3] | MTD [4] [mg/kg] |
| --- | --- | --- | --- | --- | --- | --- | --- |
| CNc1ccc(/C=C/c2nc3ccccc3o2)c(N)c1 [BF-207, 2-(2-amino-4-N-methyl-aminostyryl)benzoxazole] | – | – | – | – | – | – | ≥ 10 |
| Cc1nc(/C=C/c2ccc(N(C)C)cc2O)oc1COCCF [BF-210] | – | – | – | – | – | – | ≥ 10 |
| Nc1ccc(-c2ccc3cc(CF)ccc3n2)c(O)c1 [BF-213, 2-[(4-amino-2-hydroxy)-phenyl]-6-(fluoro-methyl)quinoline] | – | – | – | 10 | 2 | – | ≥ 10 |
| Cc1nc(/C=C/c2cnc(N(C)C)s2)oc1C [BF-214, 2-(dimethylamino)-5-[2-(4,5-dimethyloxazol-2-yl)ethenyl]thiazole] | 9.0 % ID/g or ml | 2.1 % ID/g or ml | – | – | – | – | ≥ 10 |
| CN(C)c1cnc(/C=C/c2nc3ccccc3o2)o1 [BF-215, 2-[2-(5-dimethylamino-oxazol-2-yl)-ethenyl]-benzoxazole] | 8.8 % ID/g or ml | 2.5 % ID/g or ml | – | – | – | – | ≥ 10 |
| CN(C)c1ncc(-c2nc3ccccc3o2)s1 [BF-225, 2-(2-dimethylamino-thiazol-5-yl)benzoxazole] | – | – | – | – | – | – | ≥ 10 |
| Cc1nc(/C=C/C=C/c2ccc(N(C)C)cc2)oc1C [BF-228, 2-[[4-(4-dimethylamino)-phenyl]-1,3-butadienyl]-3,4-dimethyloazole] | – | – | – | >10 | 16 | – | ≥ 10 |
| CN(C)c1ncc(/C=C/c2nc3ccccc3o2)o1 [BF-230, 2-[2-(2-dimethylamino-oxazol-5yl)-ethenyl]benzoxazole] | – | – | – | – | – | – | ≥ 10 |
| CN(C)c1ncc(/C=C/C=C/c2nc3ccccc3[nH]2)s1 [BF-231, 2-[4-(2-dimethylamino-thiazol-5-yl)-1,3-butadienyl]benzimidazole] | – | – | – | >10 | 1.6 | – | ≥ 10 |
| c1ccc2cc(-c3cn4ccccc4n3)ccc2c1 [Compound N-437, 2-(2-naphthyl)imidazo-[1,2-a]pyridine hydrobromide] | – | – | – | 100 | 1 | – | ≥ 10 |
| Nc1cccc(-c2cn3cc(Cl)ccc3n2)c1 [Compound N-475, 2-(3-aminophenyl)-6-chloroimidazo[1,2-a]pyridine] | – | – | – | 100 | 100 | – | – |
| Cc1ccc2nc(-c3ccc(NC(=O)c4ccc(Cl)cc4Cl)cc3)sc2c1 [HT-040, 4-(6-methylbenzothiazol-2-yl)-N-(2,4-dichlorobenzoyl)aniline] | – | – | – | >10 | 10 | – | – |
| Cc1ccc2nc(-c3ccc(NC(=O)c4ccc(Cl)cc4)cc3)sc2c1 [HT-041, 4-(6-methylbenzothiazol-2-yl)-N-(4-chloro-benzoyl)aniline] | – | – | – | >10 | 10 | – | – |
| Cc1ccc2nc(-c3ccc(NC(=O)c4cccs4)cc3)sc2c1 [HT-042, 4-(6-methylbenzothiazol-2-yl)-N-(thio-phen-2-carbonyl)aniline] | – | – | – | >100 | 10 | – | – |
| Cc1ccc2nc(-c3ccc(NC(=O)Nc4cccc(Cl)c4)cc3)sc2c1 [HT-043, 4-(6-methylbenzothiazol-2-yl)-N-(3-chlorophenyl-aminocarbonyl)aniline] | – | – | – | >10 | 100 | – | – |
| CCN(CC)c1ccc2cc(-c3nc4ccccc4[nH]3)c(=O)oc2c1 [SA-272, 2-(7-diethylamino-coumarin-3-yl)-benzimidazole] | – | – | – | 100 | 1000 | – | – |
